In patent US9096605B2, “Pyrazolopyrimidine derivatives as PI3 kinase inhibitors” (GlaxoSmithKline LLC, priority 2011, dated 2015) one finds IC50 data, which are given here for 15 molecules.

SMILES strings stand for the structures.

One assay concerns the target T1, PI3K-beta (Homo sapiens, UniProt P42338).
T1 construct: made in house
Briefly: HTRF in vitro profiling assay for PI3K inhibition (beta isoform). Format: biochemical. Conditions: PI3K-beta enzyme pIC50 range, 200 pM enzyme, 100 uM ATP, 10 uM PIP2, 150 mM NaCl, corrected pIC50, read-out: PI3K-b Enz Activity. The text has this:
HTRF In Vitro Profiling Assays for PI3K Inhibition
The PI3-Kinase profiling assays were developed to measure the compound-dependent inhibition of the alpha, beta, delta, and gamma isoforms of PI3K in an in vitro catalytic assay. This assay was developed and optimized from a kit produced by Upstate (Millipore catalog #33-017). Briefly, this procedure utilizes a pre-formed HTRF (Homogeneous Time-Resolved Fluorescence energy transfer) complex between four binding partners: 1) biotinylated PIP3, 2) GST tagged pleckstrin homology (PH) domain, 3) Europium labeled anti-GST monoclonal antibody, and 4) Streptavidin-Allophycocyanin (APC). The native PIP3 produced by PI 3-Kinase activity displaces biotin-PIP3 from the PH domain, resulting in the dissociation of the HTRF complex and a decrease in the fluorescence signal. The format of this assay is the same for all 4 isoforms of PI3K; the differences lie in the concentration of enzyme used to achieve the most robust signal. The alpha and delta assays are run at 400 pM enzyme; the beta assay is at 200 pM enzyme and the gamma assay is run at 1 nM enzyme. In addition, the alpha, beta and delta assays are run with 150 mM NaCl while the gamma assay is run in the absence of NaCl. The ATP concentration is 100 uM in the alpha, beta, and delta assays and 15 uM ATP in the gamma assay. All reactions are run at 10 uM PIP2
Compounds are serially diluted (3-fold in 100% DMSO) across a 384-well polypropylene mother plate from column 1 to column 12 and column 13 to column 24, to yield 11 concentrations for each test compound. Columns 6 and 18 contain only DMSO. Once titrations are made, […] is transferred to a 384-well low-volume assay plate (Greiner 784076). This assay plate contains three pharmacological controls (known PI3K inhibitors) and 3 assay controls: (1) Enzyme without inhibitor; (2) Buffer minus enzyme, and (3) Buffer minus enzyme plus native PIP3. DMSO is stamped into all wells of columns 6 and 18. PIP3 is added at 40 μM in 1× Reaction buffer (1 μL of 200 μM PIP3) to alternating rows of column 18 (wells 18 B, D, F, H, J, L, N, P). The no-enzyme control reactions are run in wells 18 A, C, E, G, I, K, M, O (0.1 μL of 100% DMSO).
The PI3-Kinase profiling assay was optimized using the HTRF kit provided by Upstate (Millipore). The assay kit contains seven reagents: 1) 4× Reaction Buffer; 2) native PIP2 (substrate); 3) Stop A (EDTA); 4) Stop B (Biotin-PIP3); 5) Detection Mix A (Streptavidin-APC); 6) Detection Mix B (Eu-labeled Anti-GST plus GST-tagged PH-domain); 7) Detection Mix C (KF). In addition, the following items were obtained or purchased: PI3Kinase (prepared by GSK BR&AD), dithiothreitol (Sigma, D-5545), Adenosine-5′-triphosphate (ATP, Teknova cat. # A0220), native PIP3 (1,2-dioctanoyl-sn-glycero-3-[phosphoinositil-3,4,5-triphosphate]tetraammonium salt (Avanti polar lipids, 850186P), DMSO (Sigma, 472301).
PI3Kinase Reaction Buffer is prepared by diluting the stock 1:4 with de-ionized water. Freshly prepared DTT is added at a final concentration of 5 mM on the day of use. Enzyme addition and compound pre-incubation are initiated by the addition of 2.5 μL of PI3K (at twice its final concentration) in 1× reaction buffer to all wells using a Multidrop Combi. Plates are incubated at room temperature for 15 minutes. Reactions are initiated by addition of 2.5 μL of 2× substrate solution (PIP2 and ATP in 1× reaction buffer) using a Multidrop Combi. Plates are incubated at room temperature for one hour. Reactions are quenched by the addition of 2.5 μL of stop solution (Stop A and Stop B pre-mixed at a ratio of 5:1, respectively) to all wells using the Multidrop Combi. […]

Assay [1] deals with pAKT(Ser473) in MDA-MB-468 cells. Briefly: pAKT(Ser473) assay in MDA-MB-468 cells. Type of assay: cell-based. Conditions: Homo sapiens, 0.5 h, compound treatment 30 minutes, MSD ELISA phospho AKT(Ser473), given as ranges, read-out: Cell Activity—pAKT IC50 in MDA-MB-468. On the procedure:
pAKT(Ser473) Assay in MDA-MB-468 Cells
MDA-MB-468 cells were plated in 384-well flat clear bottom tissue culture plates (Corning #3701) at a density of 5000 cells per 0.057 cm2 in 48 ul of RPMI 1640 media supplemented with 10% fetal bovine serum (FBS). Cells were seeded with a Wellmate liquid handler (Matrix). Columns 1 through 23 were plated with cells and column 24 contained media alone. Cells were incubated at 37° C. with 5% CO2 for approximately 16-20 hours. Duplicate compound plates were prepared in 384-well polypropylene V-Bottom plates (Greiner #781280).
Compound titrations were made across the columns (A1-A20). 20 ul of compound was added to the first column and diluted into a 20 point curve with dimethylsulfoxide (DMSO, Thermo #TS2064) using a 2-fold dilution factor with a liquid handling robot (Hamilton). Columns 22 through 24 contained DMSO alone. Titrations were diluted 682-fold for compound treatment with 4 ul of compound added to 105 ul of RPMI media. Two ul of the diluted compound was added to the cell plates containing 48 ul of media using a multimek robot (Beckman Coulter). Final DMSO concentrations were 0.15%. Cells were treated with compound for 30 minutes at 37° C. with 5% CO2.
Following incubation, media was aspirated from dosed cell plates using an ELx405 plate washer (Bio-Tek) and 25 ul of 4° C. Meso Scale Discovery (MSD) lysis buffer with the addition of protease and phosphatase inhibitors (supplied in MSD kit #N31CB-1) was added to each well using a multidrop combi (Thermo). Precoated 4-spot per well MSD ELISA plates coated with total and phospho AKT(Ser473) antibody and BSA (supplied in kit) were blocked for 1 hour at room temperature with 35 ul per well of 1× MSD wash buffer+3% BSA (supplied in kit).
Blocked plates were washed 4 times with 100 ul per well of 1× Tris wash buffer (supplied in MSD kit) using an Elx405 plate washer (Bio-Tek). To each well, 20 ul of cell lysate was added using a multimek robot (Beckman Coulter) and the plate incubated at 4° C. overnight (˜12-24 hours). Following incubation, the ELISA plates were washed 4 times (100 ul/well) with 1× Tris wash buffer. Twenty microliters per well of 1× detection antibody (supplied in MSD kit) was added using a multidrop combi (Thermo), followed by a 2 hour incubation at room temperature. Detection antibody was aspirated and the plates washed 4 times (100 ul/well) with 1× Tris wash buffer. Read Buffer (supplied in MSD kit) was added at 1× (35 ul/well) at room temperature using a multidrop (Thermo). Relative luminescence units (RLU) were determined using a SECTOR™ Imager 6000 with MSD Workbench Software.
Concentration Response Curves for pAKT(Ser473):
For analysis of the pAKT(Ser473) concentration response curves, the data was normalized using Phospho AKT values divided by the sum of corresponding Total AKT and Phospho AKT values. The normalized values are plotted as the percent of the DMSO-treated control values on the corresponding plate. To determine IC50 values, the data is fit to a 4 parameter nonlinear sigmoidal dose response (variable slope) using GraphPad Prism version 4 for Windows, (GraphPad Software, San Diego Calif. USA). Criteria for curve fitting and IC50 determination include that the IC50 values from duplicate runs must be within 2 to 3-fold of each other, the Y min must be less than or equal to 30% of the DMSO-treated control and the Y max must range between 80-120%. Any data point equal to or greater than 40% of the curve was not utilized.

T1 sequence (P42338 whole entry): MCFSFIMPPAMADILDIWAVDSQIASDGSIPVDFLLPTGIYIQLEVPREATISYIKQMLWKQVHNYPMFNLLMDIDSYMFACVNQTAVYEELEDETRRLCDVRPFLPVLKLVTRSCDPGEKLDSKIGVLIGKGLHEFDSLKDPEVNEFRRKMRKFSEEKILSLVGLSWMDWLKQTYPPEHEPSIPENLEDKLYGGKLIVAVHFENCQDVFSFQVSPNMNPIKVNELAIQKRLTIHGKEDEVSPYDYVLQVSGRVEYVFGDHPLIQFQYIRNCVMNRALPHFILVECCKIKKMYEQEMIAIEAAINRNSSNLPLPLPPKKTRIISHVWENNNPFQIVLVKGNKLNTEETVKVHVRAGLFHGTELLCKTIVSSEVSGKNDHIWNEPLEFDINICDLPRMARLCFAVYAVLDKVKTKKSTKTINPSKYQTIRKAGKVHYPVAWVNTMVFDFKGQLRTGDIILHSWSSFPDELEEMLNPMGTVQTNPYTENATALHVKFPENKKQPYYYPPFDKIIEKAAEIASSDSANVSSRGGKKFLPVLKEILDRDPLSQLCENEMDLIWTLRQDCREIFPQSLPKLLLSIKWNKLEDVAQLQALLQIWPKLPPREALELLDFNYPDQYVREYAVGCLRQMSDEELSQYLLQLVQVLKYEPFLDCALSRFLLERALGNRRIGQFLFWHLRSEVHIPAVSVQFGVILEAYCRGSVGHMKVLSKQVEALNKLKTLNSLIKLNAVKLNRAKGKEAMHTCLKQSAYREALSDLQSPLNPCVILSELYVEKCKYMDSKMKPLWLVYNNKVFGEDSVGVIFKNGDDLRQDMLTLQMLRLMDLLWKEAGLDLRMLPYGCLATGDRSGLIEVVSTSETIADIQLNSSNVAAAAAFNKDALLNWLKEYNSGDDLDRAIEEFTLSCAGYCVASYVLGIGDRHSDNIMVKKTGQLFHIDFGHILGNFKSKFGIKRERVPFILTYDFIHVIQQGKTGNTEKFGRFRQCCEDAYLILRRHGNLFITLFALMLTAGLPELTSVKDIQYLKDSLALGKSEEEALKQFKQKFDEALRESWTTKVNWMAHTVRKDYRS
T1 sequence (P27986 whole entry partner): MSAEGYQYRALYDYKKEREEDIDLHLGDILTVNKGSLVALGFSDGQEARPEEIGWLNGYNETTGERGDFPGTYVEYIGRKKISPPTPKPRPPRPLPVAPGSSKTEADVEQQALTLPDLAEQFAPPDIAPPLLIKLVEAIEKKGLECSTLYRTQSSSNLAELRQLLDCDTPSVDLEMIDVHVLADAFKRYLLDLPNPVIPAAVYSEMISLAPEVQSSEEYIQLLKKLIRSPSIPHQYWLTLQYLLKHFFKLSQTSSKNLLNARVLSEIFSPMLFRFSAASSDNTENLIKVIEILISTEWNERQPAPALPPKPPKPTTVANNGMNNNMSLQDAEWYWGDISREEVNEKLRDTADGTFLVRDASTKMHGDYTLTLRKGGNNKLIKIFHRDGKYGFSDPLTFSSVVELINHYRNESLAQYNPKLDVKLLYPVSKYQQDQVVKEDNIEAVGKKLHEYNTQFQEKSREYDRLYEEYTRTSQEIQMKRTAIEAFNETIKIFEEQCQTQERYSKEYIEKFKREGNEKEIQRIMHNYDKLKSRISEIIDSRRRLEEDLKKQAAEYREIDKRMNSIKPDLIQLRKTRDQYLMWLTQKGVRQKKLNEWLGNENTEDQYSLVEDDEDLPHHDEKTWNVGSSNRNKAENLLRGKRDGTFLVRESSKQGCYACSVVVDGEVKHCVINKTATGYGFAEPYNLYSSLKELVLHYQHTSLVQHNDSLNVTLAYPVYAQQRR

Take `CCc1nn2c(O)cc(-c3ccncc3)nc2c1Cc1cccc(Cl)c1Cl` [Example 31, 3-(2,3-dichlorobenzyl)-2-ethyl-5-(pyridin-4-yl)pyrazolo[1,5-a]pyrimidin-7-ol]: the IC50 on PI3K-beta was 0.126 to 1 nM; in assay [1], > 20000 nM.
Regarding `Oc1cc(-c2ccncc2)nc2c(Cc3cccc(Cl)c3Cl)c(C(F)(F)F)nn12` [Example 32, 3-(2,3-dichlorobenzyl)-5-(pyridin-4-yl)-2-(trifluoromethyl)pyrazolo[1,5-a]pyrimidin-7-ol], the IC50 was 1.26 to 10 nM on PI3K-beta and 11000 to 20000 nM in assay [1].
`Cc1c(Cc2cccc(Cl)c2Cl)c2nc(-c3ccncc3)cc(=O)n2n1C` [Example 33, 3-(2,3-dichlorobenzyl)-1,2-dimethyl-5-(pyridin-4-yl)pyrazolo[1,5-a]pyrimidin-7(1H)-one]: the IC50 at PI3K-beta is 126 to 1260 nM; in assay [1], > 20000 nM.
For `COc1nn2c(O)cc(-c3ccncc3)nc2c1Cc1cccc(Cl)c1Cl` [Example 35, 3-(2,3-dichlorobenzyl)-2-methoxy-5-(pyridin-4-yl)pyrazolo[1,5-a]pyrimidin-7-ol], in that order: 1.26 to 10 nM and 11000 to 20000 nM.
The matching figures for `Cc1nn2c(C(=O)O)cc(N3CCOCC3)nc2c1Cc1cccc(C(F)(F)F)c1C` [Example 36, 2-methyl-3-(2-methyl-3-(trifluoromethyl)benzyl)-5-morpholinopyrazolo[1,5-a]pyrimidine-7-carboxylic acid]: 1.26 to 10 nM and 1000 to 5000 nM.
For `Cc1nn2c(C(=O)O)cc(N3CCOCC3)nc2c1Cc1cccc2ccccc12` [Example 37, 2-methyl-5-morpholino-3-(naphthalen-1-ylmethyl)pyrazolo[1,5-a]pyrimidine-7-carboxylic acid], the results for the IC50 (at PI3K-beta; in assay [1]) were 12.6 to 100 nM and 1000 to 5000 nM, respectively.
For `Cc1nn2c(C(N)=O)cc(N3CCOCC3)nc2c1Cc1cccc2ccccc12` [Example 38, 2-methyl-5-morpholino-3-(naphthalen-1-ylmethyl)pyrazolo[1,5-a]pyrimidine-7-carboxamide], the IC50 on PI3K-beta was 12.6 to 100 nM; in assay [1], < 1000 nM.
In the case of `Cc1nn2c(C(N)=O)cc(N3CCOCC3)nc2c1Cc1cccc(C(F)(F)F)c1C` [Example 39, 2-methyl-3-(2-methyl-3-(trifluoromethyl)benzyl)-5-morpholinopyrazolo[1,5-a]pyrimidine-7-carboxamide], the IC50 on PI3K-beta is 12.6 to 100 nM; in assay [1] it was > 20000 nM.
With `Cc1nn2c(-c3nc[nH]n3)cc(N3CCOCC3)nc2c1Cc1cccc2ccccc12` [Example 40, 4-(2-methyl-3-(naphthalen-1-ylmethyl)-7-(1H-1,2,4-triazol-3-yl)pyrazolo[1,5-a]pyrimidin-5-yl)morpholine], the IC50 is 1.26 to 10 nM at PI3K-beta and < 1000 nM in assay [1].
Take `Cc1nn2c(-c3nc[nH]n3)cc(N3CCOCC3)nc2c1Cc1cccc(C(F)(F)F)c1C` [Example 41, 4-(2-methyl-3-(2-methyl-3-(trifluoromethyl)benzyl)-7-(1H-1,2,4-triazol-3-yl)pyrazolo[1,5-a]pyrimidin-5-yl)morpholine]: the IC50 lay in the range of 1.26 to 10 nM at PI3K-beta and 6000 to 10000 nM in assay [1].
As for `Cc1nn2c(-c3cc[nH]n3)cc(N3CCOCC3)nc2c1Cc1cccc2ccccc12` [Example 42, 4-(2-methyl-3-(naphthalen-1-ylmethyl)-7-(1H-pyrazol-3-yl)pyrazolo[1,5-a]pyrimidin-5-yl)morpholine], the IC50 is 1.26 to 10 nM at PI3K-beta and < 1000 nM in assay [1].
The matching figures for `Cc1nn2c(-c3ncc[nH]3)cc(N3CCOCC3)nc2c1Cc1cccc2ccccc12` [Example 43, 4-(7-(1H-imidazol-2-yl)-2-methyl-3-(naphthalen-1-ylmethyl)pyrazolo[1,5-a]pyrimidin-5-yl)morpholine]: 1.26 to 10 nM and < 1000 nM.
The matching figures for `Cc1nn2c(C#N)cc(N3CCOCC3)nc2c1Cc1cccc(C(F)(F)F)c1C` [Example 45, 2-methyl-3-(2-methyl-3-(trifluoromethyl)benzyl)-5-morpholinopyrazolo[1,5-a]pyrimidine-7-carbonitrile]: 126 to 1260 nM and > 20000 nM.
For `Cc1nn2c(-c3nn[nH]n3)cc(N3CCOCC3)nc2c1Cc1cccc(C(F)(F)F)c1C` [Example 46, 4-(2-methyl-3-(2-methyl-3-(trifluoromethyl)benzyl)-7-(2H-tetrazol-5-yl)pyrazolo[1,5-a]pyrimidin-5-yl)morpholine], the IC50 on PI3K-beta was in the range of 12.6 to 100 nM; in assay [1], 1000 to 5000 nM.
Consider `Cc1nn2c(-c3nn[nH]n3)cc(N3CCOCC3)nc2c1Cc1cccc2ccccc12` [Example 47, 4-(2-methyl-3-(naphthalen-1-ylmethyl)-7-(1H-tetrazol-5-yl)pyrazolo[1,5-a]pyrimidin-5-yl)morpholine], for which the IC50 at PI3K-beta was 12.6 to 100 nM; in assay [1] it was 1000 to 5000 nM.
